# Read-outs that look alike come from different tables or passages of the source.
# Legend:
# Assay type in all cases: biochemical
# Na,K-ATPase = Na,K-ATPase activity and stability with different phosphatidyl serines (FIG. 7); conditions: for NKA activity: measured immediately after elution from the BD Talon beads
# Protocol: (§1) Urea-treated membranes were homogenized with n-dodecyl-β-maltoside (DDM:protein, 2:1 w/w) (cat. No D310, Anatrace) in a medium containing NaCl, 250 mM; Tris.HCl, 20 mM pH 7.4; imidazole, 5 mM; PMSF, 0.5 mM; and glycerol, 10%. The protein concentration could be varied from 1-5 mg/ml and DDM adjusted accordingly from 2-10 mg/ml respectively. The unsolubilized material was removed by ultracentrifugation. Purification was done by metal-chelate chromatography using BD Talon, metal affinity resin (Co^2+-chelate). The DDM-solubilized membranes were incubated overnight at 4° C. with BD Talon beads, at a ratio of 100 μl beads per supernatant from 10 mg of membranes. EDTA was added at 50-250 μM at protein concentrations 1-5 mg/ml, respectively. The beads were washed twice for five minutes with vortexing with five volumes of a solution containing NaCl, 100 mM; Tris.HCl, 20 mM pH 7.4; C12E8, 0.1 mg/ml; DOPS or SOPS 0.05 mg/ml or other lipids and cholesterol at 0.01 mg/ml, as indicated; glycerol, 10%, and imidazole, 10 mM. Protein was eluted by mixing the beads for 40 minutes at 0° C. with one volume of a solution containing imidazole, 150 mM; NaCl, 100 mM; Tris.HCl, 20 mM pH 7.4, C12E8, 0.1 mg/ml; DOPS, or SOPS 0.05 mg/ml or other lipids and cholesterol as indicated; glycerol, 10%. The eluted protein was stored at 0° C. […] Protein concentration was determined by comparative gel densitometry with pig kidney Na^+,K^+-ATPase or by Lowry assay.
# (§2) Na^+,K^+-ATPase assays were done as described in (Cohen et al., 2005, J Biol Chem, 280, 16610-16618; Strugatsky et al., 2003, J Biol Chem, 278, 46064-46073). 0.1-0.2 μg of purified protein was incubated at 37° C. for 2-10 min in 0.1 ml of Na,K-ATPase reaction medium containing 130 mM NaCl; 20 mM KCl; 3 mM MgCl2; 25 mM Histidine pH 7.4. The reaction was started by addition of 2 mM ATP [^32P-ATP].
# The experiment in FIG. 7 compared the stability with different chain lengths and saturation of the side chains.
# human α1β1 [1] = target: T1, human α1β1 (Homo sapiens, UniProt P05023); test: Initial Na,K-ATPase activity of human α1β1 prepared with phospholipid with or without cholesterol; conditions: human α1β1, initial activity following elution from the beads, 37° C.
# T1 construct: The coding regions were excised with XbaI and subcloned; made in house; host or cells: Pichia pastoris SMD1165
# Protocol: as §1, with “mM.” for “mM. Protein was eluted by mixing the beads for 40 minutes at 0° C. with one volume of a solution containing imidazole, 150 mM; NaCl, 100 mM; Tris.HCl, 20 mM pH 7.4, C12E8, 0.1 mg/ml; DOPS, or SOPS 0.05 mg/ml or other lipids and cholesterol as indicated; glycerol, 10%. The eluted protein was stored at 0° C.”, “assay. […]” for “assay.”
# porcine α1β1 = target: T2, porcine α1β1 (Sus scrofa, UniProt P05024); test: Na,K-ATPase activity of porcine α1β1 with different phospholipids (FIG. 6A); conditions: porcine α1β1, FIG. 6A
# T2 construct: made in house; host or cells: Pichia pastoris SMD1165
# Protocol: as §1, §2
# Both DOPS and DOPI are acid phospholipids, while DOPC and DOPE have no net charge.
# human α1β1 [2] = target: T1, human α1β1; test: Stabilization of human α1β1 Na,K-ATPase activity over time (lipids, sterols, FXYD1); conditions: for stabilizing effect of sterol on Na,K-ATPase activity: human α1β1 prepared with DOPS or DOPC, FIGS. 9A-B
# Protocol: as §1, §2
# (§3) Aliquots of the preparations were incubated either at 37° C. or 45° C., respectively, for the indicated times, and then returned to 0° C., prior to measurement of Na,K-ATPase activity.
# human α1β1 [3] = test: as above
# Protocol: as §1, §2, §3
# human α2β1 [4] = target: T3, human α2β1 (Homo sapiens, UniProt P50993); test: Stabilization of human α2β1 Na,K-ATPase activity over time (lipids, sterols, FXYD1); conditions: for stabilizing effect of sterol on α2β1 complex: 0° C., together with DOPS
# T3 construct: The coding regions were excised with XbaI and subcloned; made in house; host or cells: Pichia pastoris SMD1165 (clone "b", induced at 20° C.)
# Protocol: as §1, §2, §3
# human α1β1 [5] = target: T1, human α1β1; test: biochemical
# Protocol: as §2
# (§4) The inhibitor was added directly to the reaction medium at 37° C. immediately prior to addition of ATP, which starts the reaction.
# human α2β1 [6] = target: T3, human α2β1; test: biochemical
# Protocol: as §2, §4
molecule,measurement,setting,value
"CCCCCCCCCCCCCC(=O)OC[C@H](COP(=O)(O)OC[C@H](N)C(=O)O)OC(=O)CCCCCCCCCCCCC [DMPS, 1,2-Dimyristoyl-sn-Glycero-3-[Phospho-L-Serine]]",NKA activity,"Na,K-ATPase",11.48 µmol/min/mg
"CCCCCCCC/C=C\CCCCCCCC(=O)OC[C@H](COP(=O)([O-])OCC[N+](C)(C)C)OC(=O)CCCCCCC/C=C\CCCCCCCC [DOPC, 1,2-Dioleoyl-sn-Glycero-3-Phosphocholine]","Na, K-ATPase activity",human α1β1 [1],14.28 µmol/min/mg
same,"maintenance of Na,K-ATPase activity with phospholipid",porcine α1β1,"somewhat lower initial Na,K-ATPase activity at 37 °C than for DOPS"
"CCCCCCCC/C=C\CCCCCCCC(=O)OC[C@H](COP(=O)(O)OCCN)OC(=O)CCCCCCC/C=C\CCCCCCCC [DOPE, 1,2-Dioleoyl-sn-Glycero-3-Phosphoethanolamine]","maintenance of Na,K-ATPase activity with phospholipid",porcine α1β1,DOPS>DOPI>>DOPE
"CCCCCCCC/C=C\CCCCCCCC(=O)OC[C@H](COP(=O)(O)OC1C(O)C(O)C(O)[C@@H](O)C1O)OC(=O)CCCCCCC/C=C\CCCCCCCC (some centres unmarked) [DOPI, 1,2-Dioleoyl-sn-Glycero-3-Phosphoinositol]","maintenance of Na,K-ATPase activity with phospholipid",porcine α1β1,DOPS>DOPI>>DOPE
"CCCCCCCC/C=C\CCCCCCCC(=O)OC[C@H](COP(=O)(O)OC[C@H](N)C(=O)O)OC(=O)CCCCCCC/C=C\CCCCCCCC [DOPS, 1,2-Dioleoyl-sn-Glycero-3-[Phospho-L-Serine]]","Na, K-ATPase activity",human α1β1 [1],11.64 µmol/min/mg
same,"maintenance of Na,K-ATPase activity with phospholipid",porcine α1β1,DOPS>DOPI>>DOPE
same,NKA activity,"Na,K-ATPase",11.42 µmol/min/mg
same,half-time for loss of activity,"human α1β1 [2]; 37° C., human α1β1 prepared with DOPS, without PLM",about 70 minutes
same,"remaining activity, of initial activity","human α1β1 [2]; after 120 minutes at 37° C., human α1β1 prepared with DOPS, without PLM",approximately 20%
"CCCCCCCCCCCCCCCC(=O)OC[C@H](COP(=O)(O)OC[C@H](N)C(=O)O)OC(=O)CCCCCCCCCCCCCCC [DPPS, 1,2-Dipalmitoyl-sn-Glycero-3-[Phospho-L-Serine]]",NKA activity,"Na,K-ATPase",6.46 µmol/min/mg
"CCCCCCCCCCCCCCCCCC(=O)OC[C@H](COP(=O)(O)OC[C@H](N)C(=O)O)OC(=O)CCCCCCCCCCCCCCCCC [DSPS, 1,2-Distearoyl-sn-Glycero-3-[Phospho-L-Serine]]",NKA activity,"Na,K-ATPase",4.72 µmol/min/mg
"CCCCCCCC/C=C\CCCCCCCC(=O)O[C@H](COC(=O)CCCCCCCCCCCCCCC)COP(=O)(O)OC[C@H](N)C(=O)O [POPS, 1-Palmitoyl-2-Oleoyl-sn-Glycero-3-[Phospho-L-Serine]]",NKA activity,"Na,K-ATPase",12.58 µmol/min/mg
"CCCCCCCC/C=C\CCCCCCCC(=O)O[C@H](COC(=O)CCCCCCCCCCCCCCCCC)COP(=O)(O)OC[C@H](N)C(=O)O [SOPS, I-Stearoyl-2-Oleoyl-sn-Glycero-3-[Phospho-L-Serine]]","stability of Na,K-ATPase activity over time","Na,K-ATPase; 0° C., FIG. 7",declined even more slowly than with the standard DOPS
same,NKA activity,"Na,K-ATPase",11.92 µmol/min/mg
same,stabilizing effect of phosphatidyl serine on α1β1,"human α1β1 [3]; 37° C. and 0° C., FIGS. 8A-B (porcine and human α1β1)",significantly more stabilizing than DOPS
CC(C)CCC[C@@H](C)[C@H]1CC[C@H]2[C@@H]3CC=C4C[C@@H](O)CC[C@]4(C)[C@H]3CC[C@]12C [cholesterol],"stabilizing effect of sterol on Na,K-ATPase activity",human α1β1 [2]; 37° C.,greatly stabilizes
same,stabilizing effect of sterol on α2β1 complex,human α2β1 [4],greatly stabilized
C[C@H]1O[C@@H](O[C@H]2[C@@H](O)C[C@H](O[C@H]3[C@@H](O)C[C@H](O[C@H]4CC[C@@]5(C)[C@H](CC[C@@H]6[C@@H]5C[C@@H](O)[C@]5(C)[C@@H](C7=CC(=O)OC7)CC[C@]65O)C4)O[C@@H]3C)O[C@@H]2C)C[C@H](O)[C@@H]1O [digoxin],"offset (activity not inhibited), α1β1",human α1β1 [5],no significant offset
same,"offset (activity not inhibited), α2β1",human α2β1 [6],0.058±0.016
CC(C)[C@@H](C)/C=C/[C@@H](C)[C@H]1CC[C@H]2C3=CC=C4C[C@@H](O)CC[C@]4(C)[C@H]3CC[C@]12C [ergosterol],"stabilizing effect of sterol on Na,K-ATPase activity",human α1β1 [2]; 37° C.,only a minor stabilizing effect
same,stabilizing effect of sterol on α2β1 complex,human α2β1 [4],much less effective than cholesterol
CO[C@H]1[C@H](O)[C@H](O[C@H]2CC[C@@]3(C)[C@H](CC[C@@H]4[C@@H]3CC[C@]3(C)[C@@H](C5=CC(=O)OC5)CC[C@]43O)C2)O[C@@H](C)[C@@H]1O [neriifolin],"offset, α1","human α1β1 [5]; 37° C., FIG. 18B",0
same,IC50,"human α1β1 [5]; K0.5 for inhibition, α1, 37° C., FIG. 18B, reaction time not stated",50 ± 7 nM
same,α1/α2 preference,"human α1β1 [5]; conditions of the Na,K-ATPase reaction at 37° C.",no significant α1/α2 preference
same,"offset, α2","human α2β1 [6]; 37° C., FIG. 18B",0.12
same,IC50,"human α2β1 [6]; K0.5 for inhibition, α2, 37° C., FIG. 18B, reaction time not stated",29 ± 4.1 nM
C[C@@H]1O[C@@H](O[C@H]2C[C@@H](O)[C@]3(CO)[C@H]4[C@H](O)C[C@]5(C)[C@@H](C6=CC(=O)OC6)CC[C@]5(O)[C@@H]4CC[C@]3(O)C2)[C@H](O)[C@H](O)[C@H]1O [ouabain],extent of inhibition of α1β1,"human α1β1 [5]; 37° C., reaction 10 minutes",fully inhibited
same,"offset (activity not inhibited), α2β1","human α2β1 [6]; 37° C., 60 minutes",0.056±0.017
same,"offset (activity not inhibited), α2β1","human α2β1 [6]; 37° C., reaction 10 minutes",0.069±0.01
"PLM: human FXYD1, subsidiary subunit of Na,K-ATPase, Genbank Accession No. H23593","stability of Na,K-ATPase activity","human α1β1 [3]; 37° C., human α1β1, PLM with DOPS preparation, SOPS/cholesterol without PLM",essentially no loss of activity up to 120 minutes
same,"stability of Na,K-ATPase activity","human α2β1 [4]; 37° C., α2β1 prepared with SOPS/cholesterol with PLM",essentially stable for 60 minutes at 37 °C

# Reference: US7888059B2, “Highly purified and stabilized Na,K-ATPase isoforms and methods of producing same” (Yeda Research and Development Co. Ltd., priority 2006, dated 2011)
